Data from patent publication US20240166695A1, “PEPTIDIC POSITIVE ALLOSTERIC MODULATORS TARGETING TRPV1” (priority 2021, published 2024).

Legend:
TRPV1 = test: Calcium imaging (Fluo-4) of capsaicin activation in transfected HEK293 cells; type: cell-based; settings: 0.5 nM capsaicin; cells expressing only TRPV1
Method: We then investigated whether, upon binding of the designed proteins, TRPV1 activation was positively modulated. […] Probenecid (2 mM) was included in all solutions to prevent Fluo-4 leakage from cells. At the end of incubation, cells were washed three times with ECS and incubated in the same solution for another 20 min at room temperature to complete the intracellular hydrolysis process of the AM ester, which converts the non-fluorescent Fluo-4/AM into the fluorescent version Fluo-4.
Coverslip with dye-loaded cells was placed in the quick-release magnetic chamber (Warner) and mounted on the stage of a Nikon Eclipse TE2000-U microscope system equipped with a Roper Cascade 128B CCD camera. Fluo-4 was excited by an Argon laser with a filter set of Z488/10 (excitation), z488rdc (dichroic) and recorded through an emission filter HQ5001p (all from Chroma). The duration of light exposure was controlled by a computer-driven mechanical shutter (Uniblitz). Cell images were acquired sequentially with an exposure period of 200 ms at an interval of 1 s. The shutter and the camera were controlled and synchronized by MetaMorph software (Universal Imaging).

rats = test: Heat pain test, paw withdrawal latency after intraplantar injection; type: in vivo, Sprague-Dawley rats; settings: for paw withdrawal latency / analgesic effect: intradermal hind paw injection, 100 μl, capsaicin 150 μM alone or with MRS1477 50 μM or TAT-De3 150 μM
Method: Animals. Male Sprague-Dawley rats (200-250 g, Charles River Laboratories, Inc.) were housed under a 12 h light-dark cycle and allowed access to food and water ad libitum. The ambient temperature of the holding and testing; rooms was ˜22° C. All procedures involving animals were carried out in strict compliance with the National Institutes of Health and institutional guidelines for the humane care of animals and were approved by the Animal Care and Use Committee of Zhejiang University (Approval ID: ZJU20190100). All efforts were made to minimize both animal numbers and distress within the experiments.
Animal behavioral measurements. A 10 mM stock solution of MRS1477 was prepared in 100% DMSO and further diluted in vehicle to 2 μg/100 μl (50 μM). […] Capsaicin-only injectates contained an equal amount of DMSO as those with MRS1477. All intraplantar injections were made using a. 29 G×½″, 3/10 cc insulin syringe. The experimenter was blinded to the identity of the injectates in the various behavioral experiments.
Thermal hyperalgesia measurement was performed as reported previously (11, 35). Briefly, unrestrained rats were placed on a clear glass platform which a light beam was applied onto the plantar hind paws of the animals under a small plastic cage which allowed them to move freely. The thermal nociceptive response was defined as the latency between light stimulus onset and paw withdrawal using a feedback-controlled shutdown unit. The intensity of the light stimulus was set such that naive rats responded with a latency of approximately 5 s. Each paw was tested one time. In the absence of a response within a predetermined maximum latency (30 s), the test was terminated to prevent tissue damage. On the day of testing, rats were allowed to habituate for at least 30 min prior to thermal stimulation. […]
We observed significant analgesic effects of TAT-De3 intradermally injected into the hind paw of rats against thermal pain. […] We recorded paw withdrawal latency to reflect the pain sensation. […]

[1] = Body temperature measured in the course of heat pain tests; settings: rats, injection of PAM in heat pain tests

| Structure (SMILES) | calcium influx (TRPV1) | paw withdrawal latency / analgesic effect (rats) | hyperthermia (body temperature) [1] | duration of analgesic effects after a single injection (rats; co-injected with capsaicin 150 μM) |
| --- | --- | --- | --- | --- |
| COc1cc(CNC(=O)CCCC/C=C/C(C)C)ccc1O [capsaicin, reference compound] | did not illicit calcium influx | no change in the paw withdrawal latency |  |  |
| CCOC(=O)C1=C(c2ccccc2)NC(C)=C(C(=O)SCCOC)C1CC (centres unmarked) [MRS1477] |  | paw withdrawal latency was increased | did not cause hyperthemia | diminished after three days |
